Results from the NIST ThermoML archive (doi:10.1016/j.jct.2014.12.020).
Numbers after ± are expanded uncertainties.

Test: wn = mass fraction of the nth substance listed
Details: 100 kPa, Liquid; for viscosity: Concentric cylinders viscometry; for mass density: Vibrating tube method

For `CCC(=O)[O-].C[N+](C)(C)CCO` [cholinium propanoate] + O, the viscosity (293.15 K, w2 = 0.003) was 4600 ± 280 mPa·s, the viscosity (293.15 K, w2 = 0.01) was 3316.4 ± 190 mPa·s and the viscosity (293.15 K, w2 = 0.021) was 2130.4 ± 110 mPa·s. The viscosity (293.15 K, w2 = 0.025) was 1826.4 ± 91 mPa·s, the viscosity (293.15 K, w2 = 0.046) was 980.3 ± 42 mPa·s and the viscosity (293.15 K, w2 = 0.064) was 607 ± 23 mPa·s. For the same compound, the viscosity (293.15 K, w2 = 0.1) was 286 ± 8.9 mPa·s, the viscosity (293.15 K, w2 = 0.127) was 193.3 ± 5.4 mPa·s and the viscosity (293.15 K, w2 = 0.208) was 74.5 ± 1.7 mPa·s. It also gave a viscosity (293.15 K, w2 = 0.262) of 49.6 ± 1.1 mPa·s, a mass density (293.15 K, w2 = 0.003) of 1070.1 ± 1.3 kg/m3 and a mass density (293.15 K, w2 = 0.01) of 1070.9 ± 1.3 kg/m3. The mass density (293.15 K, w2 = 0.021) was 1072.1 ± 1.3 kg/m3, the mass density (293.15 K, w2 = 0.025) was 1072.3 ± 1.3 kg/m3 and the mass density (293.15 K, w2 = 0.046) was 1074 ± 1.3 kg/m3. It also gave a mass density (293.15 K, w2 = 0.064) of 1075.3 ± 1.3 kg/m3, a mass density (293.15 K, w2 = 0.1) of 1076.9 ± 1.3 kg/m3 and a mass density (293.15 K, w2 = 0.127) of 1077.5 ± 1.2 kg/m3. The mass density (293.15 K, w2 = 0.208) was 1077.7 ± 1.2 kg/m3, the mass density (293.15 K, w2 = 0.262) was 1075.4 ± 1.1 kg/m3 and the viscosity (298.15 K, w2 = 0.003) was 2918.6 ± 160 mPa·s. For the same compound, the viscosity (298.15 K, w2 = 0.01) was 2112.2 ± 110 mPa·s, the viscosity (298.15 K, w2 = 0.021) was 1416.6 ± 66 mPa·s and the viscosity (298.15 K, w2 = 0.025) was 1227.2 ± 56 mPa·s. The viscosity (298.15 K, w2 = 0.046) was 681.1 ± 27 mPa·s, the viscosity (298.15 K, w2 = 0.064) was 432.9 ± 15 mPa·s and the viscosity (298.15 K, w2 = 0.1) was 211.8 ± 6 mPa·s. It also gave a viscosity (298.15 K, w2 = 0.127) of 145.4 ± 3.7 mPa·s, a viscosity (298.15 K, w2 = 0.208) of 57.9 ± 1.3 mPa·s and a viscosity (298.15 K, w2 = 0.262) of 39.1 ± 0.9 mPa·s. For the same compound, the mass density (298.15 K, w2 = 0.003) was 1067.4 ± 1.3 kg/m3, the mass density (298.15 K, w2 = 0.01) was 1068.1 ± 1.3 kg/m3 and the mass density (298.15 K, w2 = 0.021) was 1069.2 ± 1.3 kg/m3. The mass density (298.15 K, w2 = 0.025) was 1069.5 ± 1.3 kg/m3, the mass density (298.15 K, w2 = 0.046) was 1071.1 ± 1.3 kg/m3 and the mass density (298.15 K, w2 = 0.064) was 1072.3 ± 1.3 kg/m3. For the same compound, the mass density (298.15 K, w2 = 0.1) was 1074 ± 1.3 kg/m3, the mass density (298.15 K, w2 = 0.127) was 1074.6 ± 1.2 kg/m3 and the mass density (298.15 K, w2 = 0.208) was 1074.9 ± 1.2 kg/m3. For the same compound, the mass density (298.15 K, w2 = 0.262) was 1072.3 ± 1.1 kg/m3, the viscosity (303.15 K, w2 = 0.003) was 1909.6 ± 96 mPa·s and the viscosity (303.15 K, w2 = 0.01) was 1410 ± 66 mPa·s. It also gave a viscosity (303.15 K, w2 = 0.021) of 968.2 ± 42 mPa·s, a viscosity (303.15 K, w2 = 0.025) of 847.5 ± 35 mPa·s and a viscosity (303.15 K, w2 = 0.046) of 484.8 ± 17 mPa·s. For the same compound, the viscosity (303.15 K, w2 = 0.064) was 315.7 ± 10 mPa·s, the viscosity (303.15 K, w2 = 0.1) was 159.9 ± 4.2 mPa·s and the viscosity (303.15 K, w2 = 0.127) was 111.4 ± 2.7 mPa·s. For the same compound, the viscosity (303.15 K, w2 = 0.208) was 45.8 ± 1 mPa·s, the viscosity (303.15 K, w2 = 0.262) was 31.4 ± 0.7 mPa·s and the mass density (303.15 K, w2 = 0.003) was 1064.6 ± 1.3 kg/m3. The mass density (303.15 K, w2 = 0.01) was 1065.3 ± 1.3 kg/m3, the mass density (303.15 K, w2 = 0.021) was 1066.4 ± 1.3 kg/m3 and the mass density (303.15 K, w2 = 0.025) was 1066.7 ± 1.3 kg/m3. The mass density (303.15 K, w2 = 0.046) was 1068.2 ± 1.3 kg/m3, the mass density (303.15 K, w2 = 0.064) was 1069.5 ± 1.3 kg/m3 and the mass density (303.15 K, w2 = 0.1) was 1071.2 ± 1.3 kg/m3. The mass density (303.15 K, w2 = 0.127) was 1071.9 ± 1.2 kg/m3, the mass density (303.15 K, w2 = 0.208) was 1072 ± 1.2 kg/m3 and the mass density (303.15 K, w2 = 0.262) was 1069.4 ± 1.1 kg/m3. The viscosity (308.15 K, w2 = 0.003) was 1285 ± 59 mPa·s, the viscosity (308.15 K, w2 = 0.01) was 967 ± 41 mPa·s and the viscosity (308.15 K, w2 = 0.021) was 678.9 ± 27 mPa·s. It also gave a viscosity (308.15 K, w2 = 0.025) of 599.9 ± 23 mPa·s, a viscosity (308.15 K, w2 = 0.046) of 353 ± 12 mPa·s and a viscosity (308.15 K, w2 = 0.064) of 235.1 ± 6.9 mPa·s. The viscosity (308.15 K, w2 = 0.1) was 123 ± 3.1 mPa·s, the viscosity (308.15 K, w2 = 0.127) was 86.8 ± 2 mPa·s and the viscosity (308.15 K, w2 = 0.208) was 36.7 ± 0.8 mPa·s. It also gave a viscosity (308.15 K, w2 = 0.262) of 25.5 ± 0.6 mPa·s, a mass density (308.15 K, w2 = 0.003) of 1061.9 ± 1.3 kg/m3 and a mass density (308.15 K, w2 = 0.01) of 1062.5 ± 1.3 kg/m3. It also gave a mass density (308.15 K, w2 = 0.021) of 1063.6 ± 1.3 kg/m3, a mass density (308.15 K, w2 = 0.025) of 1063.8 ± 1.3 kg/m3 and a mass density (308.15 K, w2 = 0.046) of 1065.4 ± 1.3 kg/m3. It also gave a mass density (308.15 K, w2 = 0.064) of 1066.7 ± 1.3 kg/m3, a mass density (308.15 K, w2 = 0.1) of 1068.4 ± 1.2 kg/m3 and a mass density (308.15 K, w2 = 0.127) of 1069.1 ± 1.2 kg/m3. It also gave a mass density (308.15 K, w2 = 0.208) of 1069.2 ± 1.2 kg/m3, a mass density (308.15 K, w2 = 0.262) of 1066.5 ± 1.1 kg/m3 and a viscosity (313.15 K, w2 = 0.003) of 888.1 ± 37 mPa·s. The viscosity (313.15 K, w2 = 0.01) was 680.2 ± 27 mPa·s, the viscosity (313.15 K, w2 = 0.021) was 487.3 ± 18 mPa·s and the viscosity (313.15 K, w2 = 0.025) was 434.3 ± 15 mPa·s. The viscosity (313.15 K, w2 = 0.046) was 262.3 ± 7.9 mPa·s, the viscosity (313.15 K, w2 = 0.064) was 178.4 ± 4.9 mPa·s and the viscosity (313.15 K, w2 = 0.1) was 96.1 ± 2.3 mPa·s. It also gave a viscosity (313.15 K, w2 = 0.127) of 68.7 ± 1.5 mPa·s, a viscosity (313.15 K, w2 = 0.208) of 29.8 ± 0.7 mPa·s and a viscosity (313.15 K, w2 = 0.262) of 20.8 ± 0.5 mPa·s. For the same compound, the mass density (313.15 K, w2 = 0.003) was 1059.2 ± 1.3 kg/m3, the mass density (313.15 K, w2 = 0.01) was 1059.8 ± 1.3 kg/m3 and the mass density (313.15 K, w2 = 0.021) was 1060.8 ± 1.3 kg/m3. It also gave a mass density (313.15 K, w2 = 0.025) of 1061 ± 1.3 kg/m3, a mass density (313.15 K, w2 = 0.046) of 1062.6 ± 1.3 kg/m3 and a mass density (313.15 K, w2 = 0.064) of 1063.9 ± 1.3 kg/m3. The mass density (313.15 K, w2 = 0.1) was 1065.7 ± 1.2 kg/m3, the mass density (313.15 K, w2 = 0.127) was 1066.4 ± 1.2 kg/m3 and the mass density (313.15 K, w2 = 0.208) was 1066.3 ± 1.2 kg/m3. It also gave a mass density (313.15 K, w2 = 0.262) of 1063.6 ± 1.1 kg/m3, a viscosity (318.15 K, w2 = 0.003) of 628.8 ± 24 mPa·s and a viscosity (318.15 K, w2 = 0.01) of 489.6 ± 18 mPa·s. It also gave a viscosity (318.15 K, w2 = 0.021) of 357.4 ± 12 mPa·s, a viscosity (318.15 K, w2 = 0.025) of 321.1 ± 10 mPa·s and a viscosity (318.15 K, w2 = 0.046) of 198.7 ± 5.6 mPa·s. It also gave a viscosity (318.15 K, w2 = 0.064) of 137.7 ± 3.5 mPa·s, a viscosity (318.15 K, w2 = 0.1) of 76.2 ± 1.7 mPa·s and a viscosity (318.15 K, w2 = 0.127) of 55.1 ± 1.2 mPa·s. The viscosity (318.15 K, w2 = 0.208) was 24.5 ± 0.5 mPa·s and the viscosity (318.15 K, w2 = 0.262) was 17.5 ± 0.4 mPa·s.
